Values quoted from earlier work as cited in patent US20240180159A1, “NEW OIL SUSPENSION CONCENTRATE COMPOSITION” (SYNGENTA CROP PROTECTION AG, priority 2021, published 2024).

Settings: basic pH 8-14 conditions

Q: With CN1COCN(Cc2cnc(Cl)s2)/C1=N\[N+](=O)[O-] [thiamethoxam] as the compound, how does the susceptibility to hydrolysis read?
A: susceptible to hydrolysis
